Assay results as given in patent US20010034362A1, “Pyrrolidine derivatives for vision and memory disorders” (Guilford Pharmaceuticals Inc., priority 1998, published 2001).
Marks after values point to notes of the source that are not given here.

Experiments:
[1] = tested on: retinal ganglion cells and optic nerve axons; test: In vivo retinal ganglion cell and optic nerve axon tests after optic nerve transection, 14 or 28 day treatment, sacrifice at 90 days; parameters: species or system Sprague Dawley rats; conditions: for RGC Counts: mean density ± SEM of Fluoro-gold labeled RGC in 400 μm × 400 μm gridfields; for ON Axon density: mean ± SEM of RT97 labeled axons in 200 μm × 200 μm region; for increased ON axon density: adjusted for optic nerve diameter; for ON axon Count: calculated by multiplying axonal density by ON area; for Proximal optic nerve myclin basic protein Density: ± SEM, 20X analysis of % areal coverage
Source text: Complete transection of the optic nerve 5 mm from the eyeball produces massive degeneration of retinal ganglion cells, representing loss of >87% of the normal ganglion cell population 90 days after the injury (Table 1). Few spared fluorogold pre labeled ganglion cells are present in vehicle treated cases (large-white figures) among a population of small microglia that digest the debris of the degenerating cells and take up the fluorogold label (FIG. 3A).
90 days after transection few ganglion cell axons remain within the optic nerve (FIG. 4B), representing only 5.6% of the normal population. The loss of axons reflects both the death of retinal ganglion cells and the regression or “dying back” of the axons of ˜70% of the small surviving ganglion cell population into the retina itself (Table 1).
Myelin basic protein immunchistochemistry labels fascicles (darker labeled ‘islands’) of myelinated axons in the normal optic nerve (FIG. 6A, upper left). 90 days after transection extensive degeneration of myelin is evident in vehicle treated cases, characterized by the loss of fascicular organization and the appearance of numerous large dense degenerating myelin figures (FIG. 6B, upper right).
Complete transection of the optic nerve leads to degeneration of the distal segments (axon fragments disconnected from the ganglion cell bodies), and the degeneration of their myelin sheaths.
All eyes and optic nerves stumps were removed.

[2] = Clearance (Table V comments); type: in vitro ADME
[3] = tested on: retinal ganglion cell axons; test: Protection of retinal ganglion cell axons from degeneration following optic nerve transection (Table V); type: in vivo; conditions: ± SEM
Source text: Efficacy of representative compounds from different immunophilin ligand series in protecing retinal gangiou cell axons from degeneration following optic nerve transection is set forth in Table V.

[4] = tested on: retinal ganglion cells, optic nerve axons and myelin; test: Retinal ischemia by raised intraocular pressure, examined 28 days after the episode; type: in vivo, adult rats
Source text: Retinal ganglion cells were retrogradely labeled in adult rats by bilateral injection of fluorogold in their lateral geniculate nuclei. Labeled ganglion cells in the normal rat retina appear as white profiles against the dark background (FIG. 1A). Complete retinal ischemia was produced by infusing normal saline solution into the retinal vitreous cavity of each eye until the intraocular pressure exceeded arterial blood pressure. 28 days after the ischemic episode extensive degeneration of retinal ganglion cell was evidenced by massive reduction in the density of fluorogold labeled cells (FIG. 1B).
Optic nerves from vehicle treated cases examined 28 days after a 1 hour retinal ischemic episode are characterized by a decreased density of optic nerve axons and the appearance of numerous degenerating myelin figures (bright white filled circles).

[5] = tested on: retina; test: Streptozotocin induced diabetes, retinal neovascularization and neuronal loss; type: in vivo
[6] = tested on: retinal ganglion cells; test: Example 17: optic nerve transection, GPI-1046 for 28 days, sacrifice at 90 days; type: in vivo, Sprague Dawley rats; conditions: 10 mg/kg/day s.c. for 28 days
Source text: Transection of the mammalian optic nerve results in a brief period of abortive regeneration, but the majority of axotomized neurons die and the axons from many persisting ganglion cells die back beyond the optic nerve head.

[7] = tested on: streptozotocin-induced diabetic rat; test: Streptozotocin-induced diabetic sensory neuropathy, hot plate and tail flick; type: in vivo, Male Wistar rats; conditions: lesioned animals treated for 6 weeks at 10 mg/kg s.c.
Procedure: The procedure involved using Male Wistar rats which were given a single injection of streptozotocin (65 mg/kg i.v.). Blood glucose levels were determined weekly for the first three weeks and on the last week of the experiment. Animals were evaluated weekly for signs of sensory neuropathy using the conventional hot plate and tail flick apparatus test procedures.

[8] = tested on: aged mice; test: Morris watermaze, spatial learning and memory in aged rodents; type: in vivo, C57BL/6N-Nia mice; conditions: aged impaired mice, 10 mg/kg daily, retention testing after 3 weeks of dosing
Source text: The Morris watermaze is widely used for assessing spatial memory formation and retention in experimental animals. The test deoends on the animal's ability to utilize spatial visual information in order to locate a submerged escape platform in a water tank. It is important that the tank itself be as devoid of specific visual features as possible—thus, it is always circular in shape, the sides are kept smooth and in uniform dull colors, and the water is rendered opacue with nontoxic watercolour pigment or powdered milk. This is to ensure that the animal navigates only by the use of more distant visual cues, or by the use of intra-maze cues specifically provided by the experimenter. The animals' path, speed, and swim time are tracked with a ceiling camera for lacer computerized analysis. Over the course of several successive trials, spatial learning can therefore be defined as a drop of distance swum, or time elapsed, from placement in the tank until escape onto the invisible platform. The procedure involved using three-month old (young) and 18-19 month old male C57BL/6N-Nia (aged) mice which habituated to the well known and conventional Morris watermaze during a 4 trials/day, 3-4 day visible platform training phase. […] Swim Distances (cm) were analyzed in a 7×5 ANOVA including Groups and Blocks (1-5) as factors in the analysis, treating Blocks as a repeated measure.

[9] = 14 days GPI 1046, 90 days after transection
[10] = 28 days GPI 1046, 90 days after transection
[11] = 28 day treatment beginning 8 weeks after onset of streptozotocin induced diabetes

CCC(C)(C)C(=O)C(=O)N1CCC[C@H]1C(=O)OCCCc1cccnc1 [GPI 1046, 3-(3-pyridyl) -1-propyl (2s) -1-(3,3-dimethyl-1,2-dioxopentyl) -2-pyrrolidinecarboxylate]
RGC Counts ([1]; 14 days GPI 1046 10 mg/kg/day sc, 90 days after transection): small but not significant increase
% RGCs Rescued [1, 9]: 5.3%
% surviving RGCs with ON axons [1, 9]: 33.6%
ON head area (% sham) [1, 9]: 76%
Spared RGC population [1, 9]: 20,275
ON Axon density [1, 9]: 569 ± 23
increased ON axon density ([1]; 14 days GPI 1046): 1.5X
ON axon Count ([1]; 14 days GPI 1046): 6820
Distal optic nerve stump shrinkage ([1]; 14 days GPI 1046, cross sectional area compared to sham control): did not protect against shrinkage of the distal stump
Distal optic nerve myclin base protein Density, loss ([1]; 14 days GPI 1046, cross sectional area multiplied by myelin density): slightly increase the density of myelin
Proximal optic nerve myclin basic protein Density ([1]; 14 days GPI 1046): 1.6 ± 3.0 SEM % recovery
RGC Counts ([1]; 28 days GPI 1046 10 mg/kg/day sc, 90 days after transection): 67.9 ± 5.8
% surviving RGCs with ON axons [1, 10]: 81.4%
ON head area (% sham) [1, 10]: 95%*
Spared RGC population [1, 10]: 28,096*
ON Axon density [1, 10]: significant increase in the density of large, and particularly medium and small caliber optic nerve axons
increased ON axon density ([1]; 28 days GPI 1046): 5.0X
ON axon Count ([1]; 28 days GPI 1046): 22,861*
Distal optic nerve stump, less shrinkage ([1]; 28 days GPI 1046, cross sectional area compared to sham control): prevented cross sectional shrinkage
Proximal optic nerve myclin basic protein Density ([1]; 28 days GPI 1046): 70 ± 6.3 SEM % recovery
protection of optic nerve axons ([1]; first 14 days GPI 1046, proximal stump, 90 days after transection): 5.3%
Clearance [2]: 63.8 µL/min
RT97 + RGC axon density 14 days after ON transection (% ON axons rescued) [3]: 60.5% ± 3.9 SEM
protection of retinal ganglion cells (fluorogold labeled cell density) ([4]; 10 mg/kg s.c. 1 hour prior to ischemia and 10 mg/kg/day for next four days, 28 days after ischemia): noticeable protection of a large proportion of the vulnerable ganglion cell population
density of degenerating myelin figures ([4]; 28 days after 1 hour retinal ischemic episode): dramatically decreased
protection of optic nerve axons from ischemic degeneration ([4]; 28 days after 1 hour retinal ischemic episode, toluidine blue staining): protected the majority of optic nerve axons from degeneration
loss of neurons in the INL and GCL ([5]; 28 day treatment beginning 8 weeks after onset of diabetes, compared to streptozotocin/vehicle controls): appeared to decrease the loss of neurons in both the INL and GCL
neovascularization in the PR, ONL, OPL and INL [5, 11]: reduced neovascularization
neuronal loss in the ONL [5, 11]: did not appear to protect against neuronal loss in the ONL
ganglion cell population spared (perikaryal neuroprotection) ([6]; 90 days after transection): 25%
preservation of axons in the proximal stump of the transected nerve ([6]; RT97 neurofilament immunohistochemistry): preserved the axons of virtually ali croteczed neurons
hot plate and tail flick latency [7]: improvement in latency
spatial memory performance (swim distance, retention testing) [8]: significantly enhanced spatial memory performance
